According to patent US8173709B2, “Anti-infective methods for treating pathogen-induced disordered tissues” (priority 1999, dated 2012):
“Also recorded” adds a separate entry of the source. Where two headings read alike, the source gives them in different places.

Tests used:
[1] = system: Vaccinia virus (WR strain); design: species or system mice; conditions: mouse, in vivo
vaccinia virus = format: in vivo, mice; conditions: more vigorous rubbing in; treatment continued until death
[2] = system: Vaccinia virus (WR strain); design: species or system mice; conditions: mouse, in vivo; remark: listed apart in the source

benzalkonium chloride
Survivors/Total [1]: 0/10 | protection from death [1]: No protection from death | benefit in terms of survival or suppressing lesion severity (vaccinia virus): no benefit | Survivors/Total [2]: 0/10 | mean day of death / survival time compared to water [2]: longer than those respective groups treated with water, but the results were not statistically significant; also recorded: slightly longer survival times | protection from death [2]: No protection from death
